{"source": "patent US11865098B1", "about": "“Methods and compositions for treating excessive sleepiness” (Axsome Malta Ltd., priority 2017, dated 2024)", "test_system": "adults with OSA and excessive sleepiness", "assay": "Epworth Sleepiness Scale (ESS), phase 3 randomized withdrawal study in OSA", "format": "in vivo, human", "conditions": "for ESS score after 4 weeks of APC treatment: randomized patients, mITT", "description": "The ESS is a subjective sleepiness test that is well known in the art and routinely used to measure the sleepiness level of a subject. The scale is intended to measure daytime sleepiness through the use of a short questionnaire that asks the subject to rate his or her probability of falling asleep on a scale of increasing probability from 0 to 3 for eight different situations that most people engage in during their daily lives. The scores for the eight questions are added together to obtain a single number that estimates the subject's average sleep propensity (ASP). A number in the 0-10 range is considered to be normal while 11-12 indicates mild excessive sleepiness, 13-15 indicates moderate excessive sleepiness, and 16 or higher indicates severe excessive sleepiness. Narcolepsy patients have an average score of about 17. Obstructive sleep apnea (OSA) patients with excessive sleepiness have an average score of about 15.\nThe study was a double-blind, placebo-controlled, enriched, randomized withdrawal design (FIG. 1). In the Titration Phase (weeks 1-2), patients started on a once-daily dose of APC 75 mg and could be titrated up or down every 3 days to reach a maximum tolerated dose of APC 75, 150, or 300 mg. In the Stable-Dose Phase (weeks 3-4), patients continued to receive the dose that they were titrated to in the Titration Phase for 2 weeks. […]\nEfficacy was based on change from week 4 to 6 on the co-primary endpoints of MWT and ESS and percentage of patients reported as improved on the PGI-C and Clinician Global Impression of Change (CGI-C); assessed on a 7-point scale from 1 (very much improved) to 7 (very much worse).\nMWT and ESS data were analyzed using a mixed-effect model repeated measures (MMRM); PGI-C and CGI-C were evaluated using a chi-square test. […] Safety and tolerability were evaluated based on treatment-emergent adverse events (TEAEs), vital signs, and laboratory values.", "data": [{"smiles": "NC(=O)OC[C@H](N)Cc1ccccc1", "note": "[JZP-110, (R)-2-amino-3-phenylpropyl carbamate]", "values": [{"measurement": "Mean decrease in ESS score from week 4 to week 6", "setting": "Double-Blind Withdrawal Phase, patients who stayed on APC, P<0.0001 vs switched to placebo", "value": 0.1}, {"measurement": "ESS score after 4 weeks of APC treatment", "setting": "group decreased from 15.3 at baseline", "value": 6.4}, {"measurement": "ESS score after 4 weeks of APC treatment", "setting": "group decreased from 16.0 at baseline", "value": 5.9}]}]}
